# Where two headings read alike, the source gives them in different places.
# Columns and labels:
# [1] = Text: Theobromine has relatively strong intermolecular hydrogen bonding between its carbonyl groups and strong π–π stacking interactions. In theophylline, the hydrogen between the two carbonyl groups is replaced by a methyl group, causing the previously mentioned interactions to be weaker. […] Adding alkyl groups to ILs usually lowers their solubility. […] The overall poor solubility of purines is connected to their inter-base hydrogen bonding. The insertion of the methyl groups replaces protons that would otherwise be available to form inter-base hydrogen bonds.
# [2] = remark: listed apart in the source
# Protocol: Samples were quantified, as previously described, at 316 nm (see Figure S1). All assays were performed in triplicates. To verify the integrity of the IL, the liquid phase was analyzed by ^1H and ^13C NMR.
# Raphidocelis subcapitata = settings: for Acute hazard category according to European legislation: based on 96 h EC50 in mg∙L^−1; for EC50: 96 h incubation, microalgae yield, 95% confidence limits in parenthesis
# Protocol: The microalgae ecotoxicity assays were conducted, as previously described in detail, using the microalgae Raphidocelis subcapitata, i.e., following the guidelines of OECD [38], and adapted to the use of 24-well microplates. […] The microalgae were exposed to a range of concentrations of each salt, and all the assays, including the MBL blank control, were conducted in triplicate. The microplates were incubated for 96 h, under controlled incubation conditions, as used for the inoculum. After that time, the microalgae yield in each treatment was calculated as the difference between the cell densities at the end and beginning of the test.
# [3] = for Aqueous solubility enhancement (S/S0) of the salt relative to its free purine: S molar water-solubility of salt at 298 K, S0 of free purine from PubChem; for Molar water-solubility (S): pure water, 72 h, shake-flask; for Molar water-solubility (S) / pH saturated (pH of the saturated IL solution): (298 ± 1) K; for pH saturated (pH of the saturated IL solution): saturated aqueous solution
# Protocol: IL solubility studies were performed using the isothermal shake-flask method, as reported in the literature. […] If needed, samples were centrifuged for 2 min at 12,000 rpm. Samples of the liquid phase were collected and diluted in distilled water, followed by the preparation of a calibration curve for each compound of interest. The amount of compound in the liquid phase was quantified using a UV–Vis Synergy HT microplate reader from BioTek (Winooski, VT, USA). […] All assays were performed in triplicate. The pH (±0.02) of the samples was determined by using a Mettler Toledo SevenMultiTMdual pH meter.
# [4] = TGA, nitrogen, 2 K·min^−1, peak of the derivative
# Protocol: The melting temperatures (Tm) were measured in a differential scanning calorimetry (DSC), using a Hitachi DSC7000X equipment at atmospheric pressure, with hermetically sealed aluminum crucibles and a constant flow of nitrogen. […] Each sample underwent three cycles of cooling and heating, at 5 K∙min^−1 and 2 K∙min^−1, respectively. The melting point of each compound was taken as the peak temperature. The determined melting points are estimated to have a 1 K uncertainty. […] Each sample was heated in an aluminia pan, under a nitrogen atmosphere, with a heating rate of 2 K·min^−1. The degradation temperature-associated uncertainty is estimated to be 0.01 K. Degradation temperature was taken as the peak temperature of the derivative.
# [5] = cited from earlier work
# [6] = IL solution 0.05 mol∙L-1 before addition of ferulic acid
# [7] = IL solution 0.05 mol∙L-1 saturated with ferulic acid
# [8] = IL solution 0.1 mol∙L-1 before addition of ferulic acid
# [9] = IL solution 0.1 mol∙L-1 saturated with ferulic acid
# [10] = IL solution 0.25 mol∙L-1 before addition of ferulic acid
# [11] = IL solution 0.25 mol∙L-1 saturated with ferulic acid
# [12] = IL solution 0.5 mol∙L-1 before addition of ferulic acid
# [13] = IL solution 0.5 mol∙L-1 saturated with ferulic acid
# [14] = IL solution 1.0 mol∙L-1 before addition of ferulic acid
# [15] = IL solution 1.0 mol∙L-1 saturated with ferulic acid
# [16] = IL solution 1.5 mol∙L-1 before addition of ferulic acid
# [17] = IL solution 1.5 mol∙L-1 saturated with ferulic acid
Structure (SMILES),"Initial solution pH [2, 6]","Saturated solution pH [2, 7]","Initial solution pH [2, 8]","Saturated solution pH [2, 9]","Initial solution pH [2, 10]","Saturated solution pH [2, 11]","Initial solution pH [2, 12]","Saturated solution pH [2, 13]",Molar water-solubility (S) [3] [mM],pH saturated (pH of the saturated IL solution) [3],Decomposition temperature (Td) [4] [K],other results
"CCCC[N+](CCCC)(CCCC)CCCC.[Cl-] [[N4444]Cl, tetrabutylammonium chloride, reference compound]",5.71,3.29,6.31,2.89,5.62,2.63,4.26,2.36,–,–,–,"pH initial ([1]; initial aqueous solution of [N4444]Cl 1.0 mol∙L-1): 4.23; Initial solution pH [2, 14]: 4.04; Saturated solution pH [2, 15]: 2.10; Initial solution pH [2, 16]: 4.20; Saturated solution pH [2, 17]: 2.26; Acute hazard category according to European legislation (Raphidocelis subcapitata): acute 2 (acute 2 category (1 < EC50 < 10 mg∙L^−1))"
"CCCC[N+](CCCC)(CCCC)CCCC.Cn1cnc2c1c(=O)[n-]c(=O)n2C [[N4444][Theob], Tetrabutylammonium theobrominate]",10.85,5.36,11.56,5.54,11.80,8.51,11.98,9.62,1590 ± 70,12.76,457 ± 1,"Aqueous solubility enhancement (S/S0) of the salt relative to its free purine [3]: 870 fold; S/S0 of ferulic acid recalculated with S0 at a similar pH to that of the sample ([2]; all tested IL concentrations, 303 K): < 1"
"CCCC[N+](CCCC)(CCCC)CCCC.Cn1c(=O)c2[n-]cnc2n(C)c1=O [[N4444][Theop], Tetrabutylammonium theophyllinate]",8.91,5.30,10.52,6.44,10.81,6.56,10.78,7.65,2200 ± 100,10.89,486 ± 1,"Aqueous solubility enhancement (S/S0) of the salt relative to its free purine [3]: 53 fold; Initial solution pH [2, 14]: 11.06; Saturated solution pH [2, 15]: 8.63; Initial solution pH [2, 16]: 10.68; Saturated solution pH [2, 17]: 9.95"
"CCCC[N+](CCCC)(CCCC)CCCC.O=c1[n-]c2[nH]c(=O)[nH]c2c(=O)[nH]1 [[N4444][Ur], Tetrabutylammonium urate]",–,–,–,–,–,–,–,–,96 ± 7,8.31,505 ± 1,EC50 (Raphidocelis subcapitata): 2.7 µg/mL
"CCCC[N+](CCCC)(CCCC)CCCC.O=c1[nH]c(=O)c2[n-]cnc2[nH]1 [[N4444][Xan], Tetrabutylammonium xanthinate]",–,–,–,–,–,–,–,–,170 ± 10,10.14,495 ± 1,EC50 (Raphidocelis subcapitata): 0.8 µg/mL; Acute hazard category according to European legislation (Raphidocelis subcapitata): acute 1 (acute 1 category (EC50 < 1 mg∙L^−1))
O.O=c1[nH]c2nc([O-])nc([O-])c2[nH]1.[K+].[K+] [potassium urate],–,–,–,–,–,–,–,–,–,–,–,Water-solubility of other urate salts [5]: 12.06 mM
Cn1c(=O)c2[n-]cnc2n(C)c1=O.[Na+] [sodium theophyllinate],–,–,–,–,–,–,–,–,–,–,–,Molar solubility of sodium theophyllinate in pure water (S0) [1]: 260 ± 10 mM; pH saturated ([1]; [N4444]Cl 1.0 mol∙L-1 solution saturated with sodium theophyllinate): 10.55
O=c1[nH]c(=O)c2[nH]c([O-])nc2[nH]1.[Na+] [sodium urate],–,–,–,–,–,–,–,–,–,–,–,Water-solubility of other urate salts [5]: 6.76 mM
O=c1[nH]c(=O)c2[nH]c(=O)[nH]c2[nH]1 [uric acid],–,–,–,–,–,–,–,–,–,–,–,"Molar water-solubility of the free purine (S0) ([5]; (293 ± 1) K, ref PubChem [53]): 0.357 mM"

# From publication PMC8620494, “Synthesis of Purine-Based Ionic Liquids and Their Applications” (Molecules, 2021)
